Measured values published in patent US10316017B2, “COT modulators and methods of use thereof” (Gilead Sciences, Inc., priority 2015, dated 2019).

Assays:
[1] = biological target: T1, human Cot catalytic domain (30-397 amino acids) (Homo sapiens, UniProt P41279); assay: High Throughput Cot Biochemical Assay (KinEASE TR-FRET); conditions: Cot KinEASE TR-FRET, 400 μM ATP; read-out: IC50 HTRF
T1 construct: Purified recombinant human Cot catalytic domain (30-397 amino acids) was purchased from Cama Biosciences; purchased Cama Biosciences (so in the source)
T1 sequence (P41279 30-397): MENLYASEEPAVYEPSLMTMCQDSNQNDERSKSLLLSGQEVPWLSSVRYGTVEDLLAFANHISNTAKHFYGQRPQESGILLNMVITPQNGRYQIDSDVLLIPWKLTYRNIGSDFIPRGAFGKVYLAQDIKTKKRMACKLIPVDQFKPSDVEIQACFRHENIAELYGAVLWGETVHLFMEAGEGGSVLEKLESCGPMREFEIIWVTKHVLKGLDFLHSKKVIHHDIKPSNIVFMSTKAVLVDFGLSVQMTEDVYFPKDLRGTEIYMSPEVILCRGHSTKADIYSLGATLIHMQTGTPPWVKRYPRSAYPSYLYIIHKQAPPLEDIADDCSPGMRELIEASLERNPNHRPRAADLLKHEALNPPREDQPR
Procedure, shortened: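 Recombinant human Cot catalytic domain (aa 30-397), 5 nM, with 1 μM STK3 peptide and 400 μM ATP in MOPS pH 7.0 buffer with MgOAc, DTT, BSA, NP-40, glycerol, 0.1% DMSO. Phosphorylated XL665-peptide detected by Eu-[…] antibody TR-FRET.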

[2] = tested on: TNFα production in LPS-stimulated human monocytes; assay: Cot Monocyte TNFα Cell Based Assay; conditions: Homo sapiens, Monocyte, LPS-stimulated human monocytes, TNFα TR-FRET; read-out: EC50 TNF
Procedure, shortened: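 Human monocytes (5,000 cells/well) pretreated with compound for 1 hour at 37° C (0.5% DMSO), then stimulated with 50 pg/ml LPS for 4 hours. Total TNFα measured by TR-FRET after overnight antibody incubation at room temp, expressed as percent of control between unstimulated and stimulated cells.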

SMILES | IC50 [1] | EC50 [2]
CC(C)(C)CNc1c(C#N)cnc2c(C#N)cc(N[C@H](c3cn(C4(C(F)F)CC4)nn3)c3cccc(C#N)c3Cl)cc12 [Example 1080, (S)-6-(((2-chloro-3-cyanophenyl)(1-(1-(difluoromethyl)cyclopropyl)-1H-1,2,3-triazol-4-yl)methyl)amino)-4-(neopentylamino)quinoline-3,8-dicarbonitrile] | 7 nM | 148 nM
Cc1cc(F)ccc1[C@H](Nc1cc(C#N)c2ncc(C#N)c(NCC(C)(C)C)c2c1)c1cn(C2(C(F)F)CC2)nn1 [Example 1083, (S)-6-(((1-(1-(difluoromethyl)cyclopropyl)-1H-1,2,3-triazol-4-yl)(4-fluoro-2-methylphenyl)methyl)amino)-4-(neopentylamino)quinoline-3,8-dicarbonitrile] | 13 nM | 63 nM
Cc1c(-c2ccncc2)cccc1[C@H](Nc1cc(Cl)c2ncc(C#N)c(NCC(C)(C)C)c2c1)c1cn(C2(C(F)F)CC2)nn1 [Example 1085, (S)-8-chloro-6-(((1-(1-(difluoromethyl)cyclopropyl)-1H-1,2,3-triazol-4-yl)(2-methyl-3-(pyridin-4-yl)phenyl)methyl)amino)-4-(neopentylamino)quinoline-3-carbonitrile] | 5 nM | 205 nM
Cc1c(-c2cnn(C)c2)cccc1[C@H](Nc1cc(Cl)c2ncc(C#N)c(NCC(C)(C)C)c2c1)c1cn(C2(C(F)F)CC2)nn1 [Example 1086, (S)-8-chloro-6-(((1-(1-(difluoromethyl)cyclopropyl)-1H-1,2,3-triazol-4-yl)(2-methyl-3-(1-methyl-1H-pyrazol-4-yl)phenyl)methyl)amino)-4-(neopentylamino)quinoline-3-carbonitrile] | 4 nM | 76 nM
CCOC(=O)c1cccc([C@H](Nc2cc(Cl)c3ncc(C#N)c(NCC(C)(C)C)c3c2)c2cn(C3(C(F)(F)F)CC3)nn2)c1F [Example 1087, ethyl (S)-3-(((8-chloro-3-cyano-4-(neopentylamino)quinolin-6-yl)amino)(1-(1-(trifluoromethyl)cyclopropyl)-1H-1,2,3-triazol-4-yl)methyl)-2-fluorobenzoate] | 22 nM | 375 nM
COC(=O)c1cc([C@H](Nc2cc(Cl)c3ncc(C#N)c(NCC(C)(C)C)c3c2)c2cn(C3(C(F)(F)F)CC3)nn2)ccc1F [Example 1088, methyl (S)-5-(((8-chloro-3-cyano-4-(neopentylamino)quinolin-6-yl)amino)(1-(1-(trifluoromethyl)cyclopropyl)-1H-1,2,3-triazol-4-yl)methyl)-2-fluorobenzoate] | 22 nM | 934 nM
Cc1c(C#N)cccc1[C@H](Nc1cc(Cl)c2ncc(C#N)c(NCC(C)(C)C(F)(F)F)c2c1)c1cn(C2(C(F)F)CC2)nn1 [Example 1089, (S)-8-chloro-6-(((3-cyano-2-methylphenyl)(1-(1-(difluoromethyl)cyclopropyl)-1H-1,2,3-triazol-4-yl)methyl)amino)-4-((3,3,3-trifluoro-2,2-dimethylpropyl)amino)quinoline-3-carbonitrile] | 7 nM | 23 nM
Cc1c(F)cccc1[C@H](Nc1cc(Cl)c2ncc(C#N)c(NCC(C)(C)C)c2c1)c1cn(C2(C(F)(F)F)CC2)nn1 [Example 1090, (S)-8-chloro-6-(((3-fluoro-2-methylphenyl)(1-(1-(trifluoromethyl)cyclopropyl)-1H-1,2,3-triazol-4-yl)methyl)amino)-4-(neopentylamino)quinoline-3-carbonitrile] | 75 nM | 614 nM
CC(C)(C)CNc1c(C#N)cnc2c(Cl)cc(N[C@@H](c3cccc(C4(C#N)CC4)c3)c3cn(C4(C(F)(F)F)CC4)nn3)cc12 [Example 1091, (S)-8-chloro-6-(((3-(1-cyanocyclopropyl)phenyl)(1-(1-(trifluoromethyl)cyclopropyl)-1H-1,2,3-triazol-4-yl)methyl)amino)-4-(neopentylamino)quinoline-3-carbonitrile] | 28 nM | ≥ 1000 nM
CC(C)(C)CNc1c(C#N)cnc2c(Cl)cc(N[C@@H](c3ccc(F)cc3)c3cn(C45CC(C4)C5)nn3)cc12 [Example 1092, (S)-6-(((1-(bicyclo[1.1.1]pentan-1-yl)-1H-1,2,3-triazol-4-yl)(4-fluorophenyl)methyl)amino)-8-chloro-4-(neopentylamino)quinoline-3-carbonitrile] | 20 nM | 395 nM
CC(C)(C)CNc1c(C#N)cnc2c(Cl)cc(N[C@@H](c3cccc(C4(C#N)CC4)c3)c3cn(C45CC(C4)C5)nn3)cc12 [Example 1094, (S)-6-(((1-(bicyclo[1.1.1]pentan-1-yl)-1H-1,2,3-triazol-4-yl)(3-(1-cyanocyclopropyl)phenyl)methyl)amino)-8-chloro-4-(neopentylamino)quinoline-3-carbonitrile] | 10 nM | 407 nM

Further compounds by falling IC50 [1], results first:

IC50 [1] | EC50 [2] | SMILES
19 nM | 220 nM | CC(C)(C)CNc1c(C#N)cnc2c(C#N)cc(N[C@H](c3cn(C4(C(F)(F)F)CC4)nn3)c3cccc(C#N)c3Cl)cc12 [Example 1079, (S)-6-(((2-chloro-3-cyanophenyl)(1-(1-(trifluoromethyl)cyclopropyl)-1H-1,2,3-triazol-4-yl)methyl)amino)-4-(neopentylamino)quinoline-3,8-dicarbonitrile]
17 nM | 424 nM | CC(C)(C)CNc1c(C#N)cnc2c(Cl)cc(N[C@@H](c3ccccc3)c3cn(C45CC(C4)C5)nn3)cc12 [Example 1093, (S)-6-(((1-(bicyclo[1.1.1]pentan-1-yl)-1H-1,2,3-triazol-4-yl)(phenyl)methyl)amino)-8-chloro-4-(neopentylamino)quinoline-3-carbonitrile]
12 nM | 226 nM | Cc1c(-c2ccncc2)cccc1[C@H](Nc1cc(Cl)c2ncc(C#N)c(NCC(C)(C)C)c2c1)c1cn(C2(C(F)(F)F)CC2)nn1 [Example 1095, (S)-8-chloro-6-(((2-methyl-3 (pyridin-4-yl)phenyl)(1-(1-(trifluoromethyl)cyclopropyl)-1H-1,2,3-triazol-4-yl)methyl)amino)-4-(neopentylamino)quinoline-3-carbonitrile]
7 nM | 73 nM | CC(C)(C)CNc1c(C#N)cnc2c(Cl)cc(N[C@@H](c3ccc(C#N)cc3)c3cn(C4CC4)nn3)cc12 [Example 1084, (S)-8-chloro-6-(((4-cyanophenyl)(1-cyclopropyl-1H-1,2,3-triazol-4-yl)methyl)amino)-4-(neopentylamino)quinoline-3-carbonitrile]
3 nM | 219 nM | Cc1c([C@H](Nc2cc(C#N)c3ncc(C#N)c(NCC(C)(C)C)c3c2)c2cn(C3(C(F)(F)F)CC3)nn2)cccc1-n1cnnn1 [Example 1081, (S)-6-(((2-methyl-3-(1H-tetrazol-1-yl)phenyl)(1-(1-(trifluoromethyl)cyclopropyl)-1H-1,2,3-triazol-4-yl)methyl)amino)-4-(neopentylamino)quinoline-3,8-dicarbonitrile]
2 nM | 262 nM | Cc1c([C@H](Nc2cc(C#N)c3ncc(C#N)c(NCC(C)(C)C)c3c2)c2cn(C3(C(F)F)CC3)nn2)cccc1-n1cnnn1 [Example 1082, (S)-6-(((1-(1-(difluoromethyl)cyclopropyl)-1H-1,2,3-triazol-4-yl)(2-methyl-3-(1H-tetrazol-1-yl)phenyl)methyl)amino)-4-(neopentylamino)quinoline-3,8-dicarbonitrile]
